Counter-ions that a name gives are not always drawn. Like-named read-outs stand apart in the source and are kept apart here. Square brackets hold non-standard residues; d marks the D form. Peptide text beside a SMILES is read from it. * marks the point of attachment. Myristoyl = CCCCCCCCCCCCCC(=O)*; Nle = CCCC[C@H](N)C(=O)O
Experiments:
NBM CD34+ cells = assay: Methylcellulose colony formation of normal CD34+ marrow cells; type: cell-based, human; conditions: NBM CD34+ cells (normal CD34+ myeloid progenitors)
Experimental: The Ph^1 K562, the BCR/ABL-expressing 32Dc13 and BaF3 cells, and their derivative lines were maintained in culture in IMDM/10% FBS/2 mM L-glutamine. The SET shRNA-, HA-PP2Ac-, and HA-PP2Ac/FLAG-SET-expressing cells were generated by retroviral infection followed by either antibiotic-mediated selection or FACS-mediated sorting of the GFP+ (green fluorescent protein) cells as described (Perrotti et al., (2002), Nat. Genet. 30:48-58). The following cells were kind gifts: 32D-p210^Y253H (B. Calabretta; TJU, Philadelphia, Pa.); BaF3-p210^T315I (B. Druker; OHSU, Portland, Oreg.); TonB210.1 (G. Daley; Harvard University, Cambridge, Mass.). Frozen samples of CD34+ bone marrow cells (NBM) from different healthy donors were from AllCells LLC (Berkeley, Calif.). […] Erythroid differentiation of K562 and derivative cell lines was assessed by o-Dianisidine (Fast Blue B; Sigma) staining of methylcellulose colonies. […]
Methylcellulose colony formation assays were carried out by plating 103 or 5×10^4 cells from BCR/ABL cell lines or primary human CML and mouse BMC, respectively, in 0.9% MethoCult H4230 (Stem Cell Technologies Inc.). […] Colonies (>125 μm) from cell lines and primary cells were scored 7 and 15 days later, respectively.

PP2A = target: T1, PP2A (Mus musculus, UniProt P63330); assay: PP2A IP phosphatase assay on lysates of treated cells; type: cell-based
T1 construct: endogenous in cells; host or cells: 32Dc13, 32D-BCR/ABL, 32D-BCR/ABL-T315I, 32D-p210 Y253H, BaF3-p210 T315I, K562, primary CML-BC CD34+ and NBM CD34+ cells
Experimental: PP2A phosphatase assays were carried out using the PP2A IP phosphatase assay kit (Upstate). Briefly, protein lysates (50 μg) in 100 μl of 20 mM HEPES (pH 7.0)/100 mM NaCl, 5 μg of PP2Ac antibody (Upstate), and 25 μl of Protein A-agarose were added to 400 μl of 50 mM Tris (pH 7.0)/100 mM CaCl2, and IPs were carried out at 4° C. for 2 hr. IPs were washed and used in the phosphatase reaction according to the manufacturer's protocol. Specificity of the PP2A assay was assessed by titration with okadaic acid and by ascertaining the absence of PP1a in the PP2A immunoprecipitates (Figure S2A). As internal control, the amount of immunoprecipitated PP2A was also monitored by anti-PP2Ac Western blots (Figure S2B).

BCR/ABL = assay: Western blot of BCR/ABL activity (phosphotyrosine) and expression; type: cell-based; conditions: for EC50: 18-24 hr, read-out: EC50 of downregulation of BCR/ABL; for BCR/ABL activity and expression: HA-PP2Ac-transduced 32D-BCR/ABL cells, okadaic acid 0.25 nM, 1 hr
Experimental: Cells (10^7) were lysed in 100 μl of RIPA buffer (150 mM NaCl, 1% NP-40, 0.1% SDS, 50 mM Tris [pH 8.0]) supplemented with 1 mM PMSF, 25 μg/ml aprotinin, 10 μg/ml leupeptin, 100 μg/ml pepstatin A, 5 mM benzamidine, 1 mM Na3VO4, 50 mM NaF, 10 mM β-glycerol-phosphate. After incubation on ice (30 min), lysates were clarified (12,000×g, 15 min, 4° C.), denatured, and subjected to SDS-PAGE and Western blot (Iervolino et al., 2002). The antibodies used were goat polyclonal anti-SET(I2PP2A), -pp32(I1PP2A), and -hnRNP A1 and rabbit polyclonal anti-SHP-1 (Santa Cruz Biotechnology); monoclonal anti-Abl (Ab-3), -c-myc (Ab-2), -phosphotyrosine PY20 (Ab-4), and -pBAD^S112 (Ab-1) (EMD); monoclonal anti-hnRNP A1 (9H10) (G. Dreyfuss, University of Pennsylvania, Philadelphia, Pa.); monoclonal anti-GRB2 and -Rb (BD TransLab Inc.); monoclonal anti-HA (Covance); monoclonal anti-PP2Ac, clone 1D6 (Upstate Inc.); monoclonal anti-FLAG, clone M2 (Sigma); monoclonal anti-pERK^T202/Y204 and rabbit polyclonal anti-pAKT^T308, pSTAT5^Y694, -pJak2^Y1007/1008, -Jak2, -BAD, -Akt, and -ERK1/2 (Cell Signaling Technology Inc.); monoclonal anti-STATS (Invitrogen); rabbit monoclonal anti-pPP2A^Y307 (Epitomics); rabbit polyclonal anti-PR65/A (Calbiochem). IPs were carried out in 20 mM HEPES (pH 7.0), 150 mM NaCl, and 0.2% NP-40 supplemented with protease and phosphatase inhibitors. Lysates were precleared and immunoprecipitated with Ab-coated beads for 3 hr at 4° C. After washings, IPs were subjected to SDS-PAGE and Western blot.

[1] = test system: 32D-BCR/ABL (T315I) cells; conditions: for treated mice BCR/ABL negative and alive 18 weeks after cell injection: after 4 weeks from restarting therapy
[2] = i.p.; cited from earlier work
32D-BCR/ABL cells = conditions: for mice still alive: 15 weeks postinjection
[3] = test system: imatinib-sensitive and -resistant BCR/ABL+ cell lines; assay: Methylcellulose colony formation of BCR/ABL cell lines; type: cell-based
Experimental: Methylcellulose colony formation assays were carried out by plating 103 or 5×10^4 cells from BCR/ABL cell lines or primary human CML and mouse BMC, respectively, in 0.9% MethoCult H4230 (Stem Cell Technologies Inc.). Where indicated, cells were plated in the presence of rhIL-3 (100 ng/ml) or rhG-CSF (25 ng/ml). Colonies (>125 μm) from cell lines and primary cells were scored 7 and 15 days later, respectively.

[4] = test system: BCR/ABL-transduced wild-type and SHP-1-deficient CD34+ mouse marrow cells; assay: Clonogenic assay of BCR/ABL-transduced mouse CD34+ marrow cells; type: cell-based; conditions: forskolin 40 μM
Experimental: Normal murine hematopoietic marrow cells were obtained from the femurs of wild-type and SHP-1-deficient “viable moth eaten” mice (The Jackson Laboratory). After hypotonic lysis and Ficoll separation, cells were used for the isolation of the CD34+/lin− fraction (Miltenyi Biotech). […] Pear, University of Pennsylvania, Philadelphia, Pa.). GFP+ (Iervolino et al., 2002) wild-type and SHP-1−/− CD34+ cells (10^6) were treated or not with forskolin (40 μM; 48 hr) and used in clonogenic assay or processed for Western blot. Where indicated, cells were treated with the following: […] Methylcellulose colony formation assays were carried out by plating 103 or 5×10^4 cells from BCR/ABL cell lines or primary human CML and mouse BMC, respectively, in 0.9% MethoCult H4230 (Stem Cell Technologies Inc.). Where indicated, cells were plated in the presence of rhIL-3 (100 ng/ml) or rhG-CSF (25 ng/ml).

[5] = test system: BCR/ABL+ cell lines and primary CML-BC CD34+ cells; assay: Growth and apoptosis (annexin V) in liquid culture of BCR/ABL+ cells; type: cell-based; conditions: after 48 hr of forskolin treatment
Akt = assay: Western blot of phosphorylated and total Akt; type: cell-based; conditions: okadaic acid (0.25 nM) added to FTY720
[6] = BCR/ABL+ cell lines and CML-BC CD34+ marrow blasts, exposure 18-24 hr, forskolin 40 μM
[7] = PP2A-expressing 32D-BCR/ABL cells, 25 μM, 8 hr

In the case of `C=C[C@@]1(C)CC(=O)[C@@H]2[C@@]3(C)CCCC(C)(C)[C@@H]3[C@H](O)[C@H](OC(C)=O)[C@@]2(C)O1` [1,9-dideoxy-forskolin], the “decrease in IL-3-dependent clonogenicity / cytokine-driven colony formation” value (NBM CD34+ cells) is reported as no more than 15%, the PP2A activity (PP2A; [6]) is reported as “enhanced” and the BCR/ABL phosphorylation (BCR/ABL; [6]) is reported as “abolished”. The EC50 (BCR/ABL; imatinib-resistant cells) was 25 µM, the EC50 (BCR/ABL; imatinib-sensitive cells) was 18 µM and the toxic side effects ([1]; 8 mg/kg/week i.p., 18 weeks after cell injection) was “no signs of toxic side effects”. The “survival and BCR/ABL status (nested RT-PCR, peripheral blood)” value ([1]; 8 mg/kg/week i.p., after 4 weeks of treatment) was “all alive and BCR/ABL negative”, the “treated mice BCR/ABL negative and alive 18 weeks after cell injection” value ([1]; of cell-injected mice) was 50% and the “treated mice BCR/ABL negative and alive 18 weeks after cell injection” value ([1]; of treated mice) was 100%. For the same molecule, the mice alive ([1]; after 7 weeks of treatment) was 70%, the “remaining mice tested BCR/ABL+” value ([1]; after suspension of treatment) was 50% and the “mice relapsed and died of acute leukemia-like disease” value ([1]; within 4 weeks from the end of treatment) was 20%. For the same molecule, the LD50 [2] was 68 mg/kg.

In the case of `CCCC[C@@H](C=O)NC(=O)[C@H](CC(C)C)NC(=O)[C@H](CC(C)C)NC(C)=O` [ALLN] (Ac-Leu-Leu-[Nle]-aldehyde), the BCR/ABL expression (BCR/ABL; [7]) is reported as “restored” and the “PP2A-induced BCR/ABL tyrosine dephosphorylation” value (BCR/ABL; [7]) is reported as “did not prevent”.

For `COC[C@@H]([C@H](O)[C@H](O)C(=O)NCC[C@H](C)c1nc(/C=C/C[C@@H]2O[C@]3(C[C@@H](O)[C@@H]2C)O[C@H]([C@H](C[C@H](O)[C@H](C)[C@H](O)[C@H](C)/C=C(C)/C(C)=C/C=C/C(C)=C\C#N)OC)[C@H](OP(=O)(O)O)C3(C)C)co1)N(C)C` [calyculin A], the “BCR/ABL activity and expression” value (BCR/ABL) was “restored”.

For `C=C[C@@]1(C)CC(=O)[C@]2(O)[C@@]3(C)[C@@H](O)CCC(C)(C)[C@@H]3[C@H](O)[C@H](OC(C)=O)[C@@]2(C)O1` [forskolin], the mice still alive (32D-BCR/ABL cells; control mice that received only forskolin) was 100%, the mice still alive (32D-BCR/ABL cells; forskolin-treated cell-injected mice) was 40% and the median survival (32D-BCR/ABL cells; forskolin-treated mice injected with 32D-BCR/ABL cells) was 8 weeks. For the same molecule, the “inhibition of clonogenic potential (average)” value [3] was 75%, the “decrease of clonogenic potential” value [4] was roughly 70% and the EC50 (BCR/ABL; imatinib-resistant cells) was 25 µM. The EC50 (BCR/ABL; imatinib-sensitive cells) was 18 µM, the “percentage of apoptosis (annexin V+ cells)” value ([5]; BCR/ABL+ cell lines) was 80% and the “percentage of apoptosis (annexin V+ cells)” value ([5]; primary CML-BC cells) was 95%. The LD50 [2] was 67 mg/kg.

For `Cc1ccc(NC(=O)c2ccc(CN3CCN(C)CC3)cc2)cc1Nc1nccc(-c2cccnc2)n1` [imatinib, imatinib mesylate], the PP2A activity (PP2A; 32D-BCR/ABL cells, 1 μM, 24 hr) was “restored to normal levels” and the PP2A activity (PP2A; imatinib-resistant BaF3p210 T315I cells) was “did not rescue”.

For `C=C1[C@@H](O)[C@@H]2O[C@]3(CC[C@H](/C=C/[C@@H](C)[C@@H]4CC(C)=C[C@@]5(O[C@H](C[C@@](C)(O)C(=O)O)CC[C@H]5O)O4)O3)CC[C@H]2O[C@@H]1[C@@H](O)C[C@H](C)[C@H]1O[C@@]2(CCCCO2)CC[C@H]1C` [okadaic acid], the “BCR/ABL activity and expression” value (BCR/ABL) was “restored” and the “apoptosis and effect on PP2A targets (e.g. Akt dephosphorylation) observed with FTY720” value (Akt) was “abrogates in part”.

In the case of `O.O.O.O.O.O.O.O.O.O=C([O-])[C@@H]1[O][Sb]2([O-])([O][Sb]34([OH])[O][C@H]([C@H](O)CO)[C@H]([O]3)[C@H](C(=O)[O-])[O]4)[O][C@H]([C@H](O)CO)[C@@H]1[O]2.[Na+].[Na+].[Na+]` [sodium stibogluconate], the BCR/ABL phosphorylation (BCR/ABL; SET shRNA- and HA-PP2A-expressing 32D-BCR/ABL cells) is reported as “restored”.

For `Cn1c(=O)c2[nH]cnc2n(C)c1=O` [theophylline], the BCR/ABL expression/activity (BCR/ABL; 100 μM, 24 hr) was “did not affect”.

For butyryl-forskolin, the PP2A activity (PP2A; [6]) was “enhanced”, the BCR/ABL phosphorylation (BCR/ABL; [6]) was “abolished” and the EC50 (BCR/ABL; imatinib-resistant cells) was 25 µM. For the same molecule, the EC50 (BCR/ABL; imatinib-sensitive cells) was 18 µM.

In the case of “myristoylated-PKI(14-22)-amide (Myristoyl-SGRTGRRNA-NH2; SMILES CCCCCCCCCCCCCC(=O)N[C@@H](CO)C(=O)NCC(=O)N[C@@H](CCCNC(=N)N)C(=O)N[C@H](C(=O)NCC(=O)N[C@@H](CCCNC(=N)N)C(=O)N[C@@H](CCCNC(=N)N)C(=O)N[C@@H](CC(N)=O)C(=O)N[C@@H](C)C(N)=O)[C@@H](C)O; UniProt P61925 14-22, looked up, fragment)”, the “forskolin-induced BCR/ABL downregulation” value (BCR/ABL; 4 μM, 24 hr, with forskolin) is reported as “did not inhibit”.

Reference: patent US8633161B2, “Therapeutic agents for the treatment of leukemia” (The Ohio State University Research Foundation, priority 2005, dated 2014)
